Laboratory results taken from ChEMBL document CHEMBL1201862, “PubChem BioAssay data set” (2004).
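How tested: cells in 96-well plates exposed to compound for 48 hours at five concentrations. At the GI50, growth is halved.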 Active and inactive are the calls of the source. No stated cut-off is given here; in the data, active = GI50 up to about 1.1 µM and inactive = higher.

What was measured:
Assay in all cases: DTP human tumour cell line panel, 48 h
CCRF-CEM = tested on: CCRF-CEM
COLO 205 = tested on: COLO 205
DMS-114 = tested on: DMS-114
DU-145 = tested on: DU-145
HOP-92 = tested on: HOP-92
HT-29 = tested on: HT-29
K562 = tested on: K562
KM12 = tested on: KM12
MDA-MB-435 = tested on: MDA-MB-435
MDA-N = tested on: MDA-N
OVCAR-5 = tested on: OVCAR-5
PC-3 = tested on: PC-3
SF-539 = tested on: SF-539
SK-MEL-5 = tested on: SK-MEL-5
SNB-19 = tested on: SNB-19
SW-620 = tested on: SW-620
T47D = tested on: T47D
U-251 = tested on: U-251
DMS-273 = tested on: DMS-273
NCI/ADR-RES = tested on: NCI/ADR-RES

Measured: GI50

COC(=O)C1=C(C(=O)OC)C(C(=O)OC)C(C(=O)OC)C(C(=O)OC)(C(=O)OC)C(C(=O)OC)=C1C(=O)OC (centres undefined)
inactive: CCRF-CEM 2.77 µM | COLO 205 4.27 µM | DMS-114 8.91 µM | DU-145 18.2 µM | HOP-92 6.89 µM | HT-29 13.3 µM | K562 3.4 µM | KM12 17.1 µM | MDA-MB-435 18.7 µM | MDA-N 17.1 µM | OVCAR-5 19.3 µM | PC-3 16.5 µM | SF-539 17.7 µM | SK-MEL-5 17.2 µM | SNB-19 17.6 µM | SW-620 5.08 µM | T47D 21.9 µM | U-251 16.9 µM

C=C1[C@@H]2CCC(C)(C)[C@H]1CCC(=O)[C@@H]2C(=O)OC
inactive: CCRF-CEM > 100 µM | COLO 205 > 100 µM | DMS-114 > 100 µM | DMS-273 > 100 µM | HT-29 > 100 µM | K562 > 100 µM | SF-539 > 100 µM | SK-MEL-5 > 100 µM | SNB-19 > 100 µM | SW-620 > 100 µM | U-251 > 100 µM

c1ccc2c(c1)CCc1cc3cc4c(nc3nc1-2)-c1ccccc1CC4
inactive: CCRF-CEM > 100 µM | COLO 205 > 100 µM | DMS-273 > 100 µM | HT-29 > 10 µM | K562 > 100 µM | KM12 > 100 µM | SF-539 > 100 µM | SNB-19 > 100 µM | SW-620 > 100 µM | U-251 > 100 µM

Cc1ccc(Cl)c2c(=O)cc(-c3ccccc3)[nH]c12
inactive: CCRF-CEM 52.7 µM | COLO 205 > 100 µM | DMS-273 35.6 µM | HOP-92 38.8 µM | HT-29 50.4 µM | K562 49.2 µM | KM12 25.4 µM | OVCAR-5 71.6 µM | SF-539 80.2 µM | SK-MEL-5 37.8 µM | SW-620 67.5 µM | U-251 88.5 µM

O=C(NC1C=CCC2C(=O)N(c3ccccc3)C(=O)C12)OCc1ccccc1 (centres undefined)
inactive: CCRF-CEM > 100 µM | COLO 205 > 100 µM | DMS-273 > 100 µM | HOP-92 > 100 µM | HT-29 > 100 µM | K562 > 100 µM | KM12 > 100 µM | OVCAR-5 97.3 µM | SF-539 > 100 µM | SK-MEL-5 > 100 µM | SNB-19 > 100 µM | SW-620 > 100 µM | U-251 > 100 µM

NC(=S)N1N=C2CCCCCC[C@@H]2[C@H]1c1ccccc1
inactive: CCRF-CEM 31.3 µM | COLO 205 46.7 µM | DMS-114 27.1 µM | DMS-273 34.2 µM | HT-29 29.2 µM | K562 32.8 µM | KM12 35.2 µM | OVCAR-5 > 100 µM | SF-539 > 100 µM | SK-MEL-5 22.4 µM | SNB-19 63.1 µM | SW-620 28.6 µM | U-251 46 µM

O=C1Nc2c(ccc(Cl)c2I)C1=O
inactive: CCRF-CEM 20.2 µM | COLO 205 16.3 µM | DMS-114 15.5 µM | DMS-273 17 µM | HT-29 28.4 µM | K562 23.8 µM | KM12 24.4 µM | OVCAR-5 20 µM | SK-MEL-5 15.7 µM | SNB-19 42.3 µM | SW-620 18.7 µM | U-251 25.5 µM

O=C1C(Cl)=C(NCCOCCO)C(=O)c2c(O)ccc(O)c21
inactive: COLO 205 2.17 µM | DMS-273 3.89 µM | HOP-92 24.3 µM | HT-29 3.08 µM | K562 2.65 µM | KM12 3.32 µM | OVCAR-5 19.5 µM | SF-539 4.53 µM | SK-MEL-5 1.96 µM | SW-620 3.55 µM | U-251 17 µM

O=C1Cc2cn[nH]c2-c2ccccc2N1
inactive: CCRF-CEM 20.7 µM | COLO 205 29 µM | DU-145 40.7 µM | HOP-92 8.45 µM | HT-29 34.9 µM | K562 21.9 µM | KM12 33.2 µM | MDA-MB-435 22.3 µM | MDA-N 35.2 µM | NCI/ADR-RES 38.4 µM | OVCAR-5 30.3 µM | PC-3 41.2 µM | SF-539 38.8 µM | SK-MEL-5 26.4 µM | SNB-19 > 68.2 µM | SW-620 17.2 µM | T47D 36 µM | U-251 23.6 µM

O=C(Nc1cc(Cl)ccc1Cl)c1cc2cccc(Cl)c2oc1=O
inactive: CCRF-CEM > 100 µM | COLO 205 > 100 µM | DMS-114 > 100 µM | DMS-273 > 100 µM | HT-29 > 100 µM | K562 > 100 µM | KM12 > 100 µM | SF-539 > 100 µM | SK-MEL-5 > 100 µM | SW-620 > 100 µM | U-251 > 100 µM
